Data published in patent US20240209010A1, “PRODRUGS OF AZO COMPOUNDS AND THEIR SALTS” (KASHIV BIOSCIENCES, LLC, priority 2021, published 2024).

How the values were obtained:
P2RX3 gene = assay: Gene expression analysis (qRT-PCR) of P2RX3 in cyclophosphamide-treated RT4 cells; format: cell-based, Human; conditions: 100 μM CYP + 10 μM compound, 4 h incubation, compared to CYP control
Description: Study Design: With objective of evaluating effect of text compounds on the pain related markers we have utilized human urothelial “RT4 (Human Urinary bladder carcinoma cells)” cells, treated with test compounds in combination with cyclophosphamide (CYP) and performed gene expression analysis of pain related gene. For gene expression study, 0.5×10^6 cells were treated with cyclophosphamide and test compounds. Cells were incubated for 4 h at 37° C. Experimental Groups: Groups 1: Untreated cells, Group 2: CYP treated (100 μM CYP), Group 3: CYP+Compound IX (100 μM CYP+10 μM Compound IX).
At the end of 4 hr incubation, medium was removed from all wells and cells were washed once with sterile PBS. RNA isolation was performed as per the manufacturer's instruction utilizing Qiagen RNA mini kit (Cat #74104). Followed by cDNA synthesis using 3 μg of total RNA each sample utilizing Superscript III First strand cDNA synthesis system (Thermo fisher, Cat No 18080051). qRT-PCR was performed using the SYBR green master mix (PCR Biosystems, Cat No:—PB20.14) and primers specific for P2RX3 gene. Upon the completion of PCR, the data was analysed using the CFX manager software. The Fold change of the expression was calculated using the following formula: 2^−ddCT=2^−((CT target −CT internal control)

[1] = Pharmacokinetic data in rat after single oral administration; format: in vivo; conditions: analyte = the administered compound itself, single oral dose (No. 12 31.2, No. 43 32.8, No. 446 34.8, No. 449 25, XIII 21.2, No. 54 27 mg/kg), fasted female Sprague Dawley rat
Description: The objective of the study was to evaluate pharmacokinetic exposure of Compound XI along with Compound No. 12/Compound No. 43/Compound No. 446/Compound No. 449/Compound XIII/Compound No. 54 after per oral dosing at 31.2 mg/kg of Compound No. 12, 32.8 mg/kg of Compound No. 43, 34.8 mg/kg of Compound No. 446, 25 mg/kg of Compound No. 449, 21.2 mg/kg of Compound XIII and 27 mg/kg of Compound No. 54 in female Sprague Dawley rat. This study was performed in overnight fasted female Sprague Dawley rat. Dose formulation was prepared freshly on the day of dosing. 0.1% tween-80+99.9% of 0.5% CMC was used as vehicle for the preparation of dose formulation.
Blood samples were collected through retro orbital plexus puncture at pre-dose, 0.25, 0.5, 1, 2, 4, 8, 12 and 24 h post-dose. At each time point, blood was withdrawn and transferred into a pre-labeled of micro centrifuge tubes containing anti-coagulant. Tube was mixed gently by inverting the tube to facilitate mixing of anticoagulant with the blood. All blood/plasma samples were analysed using fit-for purpose LC-MS/MS method.
The pharmacokinetic parameters were calculated using standard non-compartmental analysis (Phoenix® software, version 8.3, Pharsight Corporation, Mountain View, California 94040/USA) using linear trapezoidal method with linear interpolation.

Row | SMILES | P2RX3 gene expression (fold change) (P2RX3 gene) | AUC% Extrap—obs [1] [%] | AUC(0-t) ([1]; in vivo) [ng·h/mL] | Tmax ([1]; in vivo) [min] | Cmax ([1]; in vivo, arithmetic mean) [ng/mL] | AUC(0-inf) ([1]; in vivo, read-out: AUCinf—obs) [ng·h/mL]
1 | Nc1nc(N)c(/N=N/c2ccccc2)cc1O [Compound IX] | reduction in P2RX3 gene expression |  |  |  |  | 
2 | NCC(=O)Nc1ccc(/N=N/c2ccccc2OC(=O)N2CCOCC2)c(N)n1 [Compound No. 446] |  | 11.73 | 151 | 15 | 145 | 170
